Source: ChEMBL document CHEMBL1141468, “Photoactivated enediynes as targeted antitumoral agents: efficient routes to antibody and gold nanoparticle conjugates” (Bioorg Med Chem Lett, 2008)

Assay: Radiation-induced photodegradation in […] X174 Rf1 DNA assessed as conversion of type 2 DNA at 1 uM after 3 hrs

Compound `O=C(O)CCOCCOCCOCCOCCOCCOCCOCCOCCOCCOCCOCCOCCOCCC(=O)OCc1ccc(C#Cc2ccccc2C#Cc2ccccc2)cc1` has an Activity of 24%.
